Data reported in ChEMBL document CHEMBL1201862, “PubChem BioAssay data set” (2004).
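Step 1: Grow cells in 96-well plates. Step 2: Expose to compound for 48 hours at 5 concentrations. Step 3: Interpolate endpoints linearly; if unreached, use highest concentration. Abbreviation: GI50, concentration required for 50% inhibition of growth.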 Calls of active or inactive are those of the source. Rule as the data show it: active = GI50 up to about 1.1 µM and inactive = higher.

Experiments:
Assay in all cases: inhibition of tumour cell growth, NCI panel, 48 h
786-0 = test system: 786-0
CAKI-1 = test system: CAKI-1
CCRF-CEM = test system: CCRF-CEM
EKVX = test system: EKVX
KM12 = test system: KM12
NCI-H23 = test system: NCI-H23
OVCAR-8 = test system: OVCAR-8
SF-295 = test system: SF-295
SK-MEL-5 = test system: SK-MEL-5
SK-OV-3 = test system: SK-OV-3
SN12C = test system: SN12C
SW-620 = test system: SW-620
TK-10 = test system: TK-10
LOX IMVI = test system: LOX IMVI
RPMI-8226 = test system: RPMI-8226
UACC-257 = test system: UACC-257

Measured: GI50

Nc1ccc(C(=O)N/C(=C\C=C\c2ccco2)c2nc3c(O)nc(S)nc3[nH]2)cc1
inactive: 786-0 > 100 µM | CAKI-1 > 100 µM | CCRF-CEM > 100 µM | EKVX > 100 µM | KM12 > 100 µM | NCI-H23 > 100 µM | OVCAR-8 > 100 µM | SF-295 > 100 µM | SK-MEL-5 > 100 µM | SK-OV-3 > 100 µM | SN12C > 100 µM | SW-620 > 100 µM | TK-10 > 100 µM

CC#C[C@@]1(O)CCCCC1O (stereo partly specified)
inactive: 786-0 > 100 µM | CCRF-CEM > 100 µM | EKVX > 100 µM | KM12 > 100 µM | LOX IMVI > 100 µM | NCI-H23 > 100 µM | OVCAR-8 > 100 µM | RPMI-8226 > 100 µM | SF-295 > 100 µM | SK-MEL-5 > 100 µM | SK-OV-3 > 100 µM | SN12C > 100 µM | SW-620 > 100 µM | TK-10 > 100 µM | UACC-257 > 100 µM

COC1CC(OS(=O)(=O)c2ccc(C)cc2)C(OS(=O)(=O)c2ccc(C)cc2)C(COS(=O)(=O)c2ccc(C)cc2)O1 (stereo unspecified)
inactive: 786-0 1.6 µM | CAKI-1 2.72 µM | CCRF-CEM 74.3 µM | EKVX 11.2 µM | KM12 52 µM | NCI-H23 2.92 µM | OVCAR-8 1.82 µM | RPMI-8226 19.4 µM | SF-295 1.55 µM | SK-MEL-5 4.85 µM | SK-OV-3 3.01 µM | SN12C 3.96 µM | SW-620 15.6 µM | UACC-257 8.89 µM

Cc1ccc(C[P+]2(c3ccccc3)CCCCC2)cc1.[O-][Cl+3]([O-])([O-])[O-]
inactive: 786-0 47.4 µM | CCRF-CEM 38 µM | EKVX 43.9 µM | KM12 28.5 µM | LOX IMVI 26.2 µM | NCI-H23 24.7 µM | OVCAR-8 20.6 µM | RPMI-8226 7.43 µM | SF-295 44.2 µM | SK-MEL-5 10.6 µM | SK-OV-3 60.8 µM | SN12C 37.6 µM | SW-620 33.3 µM | TK-10 51.2 µM | UACC-257 6.28 µM

COc1ccc(C(=O)O)c(Br)c1OCc1ccccc1
inactive: 786-0 > 100 µM | CCRF-CEM > 100 µM | EKVX > 100 µM | KM12 > 100 µM | LOX IMVI > 100 µM | NCI-H23 > 100 µM | OVCAR-8 > 100 µM | RPMI-8226 > 100 µM | SF-295 > 100 µM | SK-MEL-5 > 100 µM | SK-OV-3 > 100 µM | SN12C 92.5 µM | SW-620 > 100 µM | TK-10 > 100 µM

COc1cc2c(c3c1C=CCO3)C(=O)c1ccccc1C2=O
inactive: 786-0 57.7 µM | CCRF-CEM 22 µM | EKVX > 100 µM | KM12 30.3 µM | LOX IMVI 28.6 µM | NCI-H23 > 100 µM | OVCAR-8 40.8 µM | RPMI-8226 32.8 µM | SF-295 > 100 µM | SK-MEL-5 24.7 µM | SK-OV-3 > 100 µM | SN12C 43.9 µM | SW-620 30.4 µM | TK-10 50.4 µM | UACC-257 25.3 µM

CC(C#N)c1cn(S(=O)(=O)c2ccccc2)c2ccccc12 (stereo unspecified)
inactive: 786-0 > 100 µM | CAKI-1 34.6 µM | CCRF-CEM 48.8 µM | KM12 72.1 µM | NCI-H23 39.9 µM | OVCAR-8 80.7 µM | RPMI-8226 38.5 µM | SF-295 34.4 µM | SK-MEL-5 16.2 µM | SW-620 > 100 µM | TK-10 > 100 µM | UACC-257 31.3 µM

C/C(=N\N(C)C)C(CN(C)C)C(c1ccccc1)c1c(O)c2ccccc2oc1=O (stereo unspecified)
inactive: 786-0 > 100 µM | CCRF-CEM > 100 µM | EKVX 68.7 µM | KM12 > 100 µM | LOX IMVI > 100 µM | NCI-H23 > 100 µM | OVCAR-8 > 100 µM | RPMI-8226 > 100 µM | SF-295 > 100 µM | SK-MEL-5 > 100 µM | SK-OV-3 > 100 µM | SN12C > 100 µM | SW-620 > 100 µM | TK-10 > 100 µM | UACC-257 > 100 µM

Cc1ccc2c(c1)C1(C)OC(CC(N)C1O)O2 (stereo unspecified)
inactive: 786-0 > 100 µM | CCRF-CEM > 100 µM | EKVX > 100 µM | KM12 > 100 µM | LOX IMVI > 100 µM | NCI-H23 > 100 µM | OVCAR-8 > 100 µM | RPMI-8226 > 100 µM | SF-295 > 100 µM | SK-MEL-5 > 100 µM | SK-OV-3 > 100 µM | SN12C > 100 µM | SW-620 > 100 µM | TK-10 > 100 µM | UACC-257 > 100 µM

CCC(CO)Nc1nc2c(c(=O)n(C)c(=O)n2C)n1CCO (stereo unspecified)
inactive: 786-0 > 100 µM | EKVX > 100 µM | KM12 > 100 µM | NCI-H23 > 100 µM | OVCAR-8 > 100 µM | RPMI-8226 > 100 µM | SF-295 > 100 µM | SK-MEL-5 > 100 µM | SK-OV-3 > 100 µM | SN12C > 100 µM | SW-620 > 100 µM | TK-10 > 100 µM | UACC-257 > 100 µM
